Data: patent publication US20210300940A1 (Merck Patent GmbH, priority 2018, published 2021)
Counter-ions that a name gives are not always drawn.

Key:
TLR7 = biological target: T1, TLR7 (Homo sapiens, UniProt Q9NYK1); experiment: HEK/293 TLR7 Cell Assay; format: cell-based; details: TLR7/NFKb HEK cells, R848 agonist 10 uM final concentration, Steady-Glo readout; read-out: TLR7 potency
T1 construct: expressed in transfected cells; host or cells: HEK/293 cells carrying TLR7 and an NF-kB luciferase reporter
T1 sequence (Q9NYK1 27-1049): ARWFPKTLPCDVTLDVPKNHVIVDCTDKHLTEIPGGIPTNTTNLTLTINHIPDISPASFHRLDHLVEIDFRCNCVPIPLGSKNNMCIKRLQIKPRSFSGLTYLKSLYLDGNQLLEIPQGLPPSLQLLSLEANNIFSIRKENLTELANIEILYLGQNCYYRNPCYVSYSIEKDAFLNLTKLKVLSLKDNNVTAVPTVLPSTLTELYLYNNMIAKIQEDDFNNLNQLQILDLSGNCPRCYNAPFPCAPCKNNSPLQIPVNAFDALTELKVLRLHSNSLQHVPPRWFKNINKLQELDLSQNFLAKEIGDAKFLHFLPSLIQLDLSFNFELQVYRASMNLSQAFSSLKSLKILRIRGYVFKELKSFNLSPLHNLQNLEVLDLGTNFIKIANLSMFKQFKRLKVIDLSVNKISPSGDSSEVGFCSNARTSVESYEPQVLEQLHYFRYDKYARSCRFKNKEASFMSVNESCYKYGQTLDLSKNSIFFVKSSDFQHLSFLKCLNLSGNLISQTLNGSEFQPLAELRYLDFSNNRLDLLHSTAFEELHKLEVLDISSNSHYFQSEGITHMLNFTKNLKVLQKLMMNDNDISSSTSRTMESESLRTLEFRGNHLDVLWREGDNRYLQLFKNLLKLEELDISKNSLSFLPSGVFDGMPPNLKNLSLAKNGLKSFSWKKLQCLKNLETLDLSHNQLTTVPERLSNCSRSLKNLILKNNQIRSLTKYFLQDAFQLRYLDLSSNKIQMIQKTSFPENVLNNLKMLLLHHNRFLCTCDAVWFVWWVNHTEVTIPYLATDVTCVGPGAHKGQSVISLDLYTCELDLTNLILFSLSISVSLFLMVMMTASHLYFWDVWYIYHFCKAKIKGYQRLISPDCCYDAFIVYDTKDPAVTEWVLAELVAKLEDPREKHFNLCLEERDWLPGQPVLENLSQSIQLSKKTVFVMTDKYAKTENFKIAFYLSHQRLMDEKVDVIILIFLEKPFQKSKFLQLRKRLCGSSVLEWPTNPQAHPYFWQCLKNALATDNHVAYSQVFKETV
How it was run: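 TLR7/NF-κB reporter HEK293 cells, 5000/well, cultured 24 h, then preincubated 30 min with compound before R848 agonist (10 uM final). After 5 h stimulation, Steady-Glo luciferase luminescence read.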

TLR8 = biological target: T2, TLR8 (Homo sapiens, UniProt Q9NR97); experiment: HEK/293 TLR8 Cell Assay; format: cell-based; details: HEK cells, R848 agonist 30 uM final concentration, Steady-Glo readout; read-out: TLR8 potency
T2 construct: expressed in transfected cells; host or cells: HEK/293 reporter cells (NF-kB luciferase)
T2 sequence (Q9NR97 27-1041): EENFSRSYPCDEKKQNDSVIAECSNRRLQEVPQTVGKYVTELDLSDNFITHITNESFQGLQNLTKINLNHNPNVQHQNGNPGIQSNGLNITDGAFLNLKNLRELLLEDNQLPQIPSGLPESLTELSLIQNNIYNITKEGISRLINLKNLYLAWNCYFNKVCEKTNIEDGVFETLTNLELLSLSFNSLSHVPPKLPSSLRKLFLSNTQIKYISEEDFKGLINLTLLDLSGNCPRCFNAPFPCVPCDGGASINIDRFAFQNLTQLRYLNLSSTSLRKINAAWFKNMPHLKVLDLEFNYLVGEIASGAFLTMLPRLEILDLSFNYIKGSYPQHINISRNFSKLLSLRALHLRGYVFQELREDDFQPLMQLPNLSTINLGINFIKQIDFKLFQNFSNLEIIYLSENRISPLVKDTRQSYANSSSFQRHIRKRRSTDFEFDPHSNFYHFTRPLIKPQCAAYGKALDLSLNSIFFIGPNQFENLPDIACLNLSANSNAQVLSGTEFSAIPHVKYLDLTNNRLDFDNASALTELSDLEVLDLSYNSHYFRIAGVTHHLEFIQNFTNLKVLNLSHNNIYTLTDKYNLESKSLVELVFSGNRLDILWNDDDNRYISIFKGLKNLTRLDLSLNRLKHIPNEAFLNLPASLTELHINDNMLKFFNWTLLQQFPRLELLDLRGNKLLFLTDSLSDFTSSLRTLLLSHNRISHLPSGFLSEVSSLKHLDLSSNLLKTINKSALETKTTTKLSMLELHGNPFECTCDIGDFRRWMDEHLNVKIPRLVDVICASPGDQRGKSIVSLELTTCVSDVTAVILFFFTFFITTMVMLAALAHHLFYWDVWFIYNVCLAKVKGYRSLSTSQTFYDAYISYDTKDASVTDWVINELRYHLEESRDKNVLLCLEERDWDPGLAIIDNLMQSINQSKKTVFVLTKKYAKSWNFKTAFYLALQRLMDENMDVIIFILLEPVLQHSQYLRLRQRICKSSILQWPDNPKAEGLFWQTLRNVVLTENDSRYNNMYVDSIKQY

| Structure (SMILES) | IC50 (TLR7) [nM] | IC50 (TLR8) [nM] |
| --- | --- | --- |
| C[C@H]1C[C@@H](NCCC(N)=O)CN(c2ccc(C(F)(F)F)c3nccnc23)C1 [Example 22, 3-[(3R,5S)-5-Methyl-1-(8-trifluoromethyl-quinoxalin-5-yl)-piperidin-3-ylamino]-propionamide] | < 75 | < 75 |
| C[C@H]1C[C@@H](NC(=O)NCCN(C)C)CN(c2ccc(C#N)c3nccnc23)C1 [Example 140, 1-[(3R,5S)-1-(8-cyanoquinoxalin-5-yl)-5-methylpiperidin-3-yl]-3-[2-(dimethylamino)ethyl]urea] | < 75 | < 75 |
| C[C@H]1C[C@@H](NCCNS(C)(=O)=O)CN(c2ccc(C(F)(F)F)c3nccnc23)C1 [Example 23, N-{2-[(3R,5S)-5-Methyl-1-(8-trifluoromethyl-quinoxalin-5-yl)-piperidin-3-ylamino]-ethyl}-methanesulfonamide] | < 75 | < 75 |
| C[C@H]1C[C@@H](NC(=O)[C@H](O)C(C)(C)O)CN(c2ccc(C#N)c3nccnc23)C1 [Example 162, (R)—N-[(3R,5S)-1-(8-Cyano-quinoxalin-5-yl)-5-methyl-piperidin-3-yl]-2,3-dihydroxy-3-methyl-butyramide] | 75 to 150 | > 150 |
| C[C@@H]1CN(c2ccc(C#N)c3nccnc23)C[C@H](C(=O)N2C[C@@H](N)C3(CC3)C2)O1 [Example 288, 8-[(2R,6R)-2-((S)-7-Amino-5-aza-spiro[2.4]heptane-5-carbonyl)-6-methyl-morpholin-4-yl]-quinoxaline-5-carbonitrile] | < 75 | < 75 |
| N#Cc1ccc(N2C[C@H](N)C[C@H](C(F)(F)F)C2)c2ccc(=O)[nH]c12 [Example 388, 5-((3R,5S)-3-Amino-5-trifluoromethyl-piperidin-1-yl)-2-oxo-1,2-dihydro-quinoline-8-carbonitrile] | > 150 | > 150 |
| C[C@H]1C[C@@H](NCCN2CCOC2=O)CN(c2ccc(C(F)(F)F)c3nccnc23)C1 [Example 31, 3-{2-[(3R,5S)-5-Methyl-1-(8-trifluoromethyl-quinoxalin-5-yl)-piperidin-3-ylamino]-ethyl}-oxazolidin-2-one formic acid] | < 75 | < 75 |
| CN(C)CCNC(=O)N[C@@H]1C[C@H](C(F)(F)F)CN(c2ccc(C#N)c3nccnc23)C1 [Example 139, 1-[(3R,5S)-1-(8-cyanoquinoxalin-5-yl)-5-(trifluoromethyl)piperidin-3-yl]-3-[2-(dimethylamino)ethyl]urea] | 75 to 150 | 75 to 150 |
| C[C@@H]1CN(c2ccc(C#N)c3ncncc23)C[C@H](CNC(=O)C2(F)CCNC2)O1 (stereo partly drawn) [Example 343, N-{[(2S,6R)-4-(8-cyanoquinazolin-5-yl)-6-methylmorpholin-2-yl]methyl}-3-fluoropyrrolidine-3-carboxamide] | < 75 | < 75 |
| Cc1cc(CC(=O)N[C@@H]2C[C@H](C)CN(c3ccc(C#N)c4nccnc34)C2)on1 [Example 74, N-[(3R,5S)-1-(8-cyanoquinoxalin-5-yl)-5-methylpiperidin-3-yl]-2-(3-methyl-1,2-oxazol-5-yl)acetamide] | < 75 | < 75 |
| COC[C@H](O)CNC(=O)[C@H]1CN(c2ccc(C#N)c3nccnc23)C[C@@H](C)O1 (single isomer, unassigned) [Example 326] | 75 to 150 | < 75 |

Other lines, results leading:

| IC50 (TLR7) [nM] | IC50 (TLR8) [nM] | Structure (SMILES) |
| --- | --- | --- |
| < 75 | < 75 | C[C@@H]1CN(c2cnc(C#N)c3ncccc23)C[C@H](C(=O)NC[C@H]2CN(C)CCO2)O1 [Example 274, (2R,6R)-4-(8-Cyano-[1,7]naphthyridin-5-yl)-6-methyl-morpholine-2-carboxylic acid ((S)-4-methyl-morpholin-2-ylmethyl)-amide] |
| < 75 | < 75 | CN1CC[C@](F)(CNC(=O)[C@@H]2CN(c3ccc(C#N)c4nccnc34)C[C@H](C(F)(F)F)O2)C1 (single isomer, unassigned) [Example 358] |
| < 75 | < 75 | Cc1ccc(N2C[C@H](CNC(=O)CC3CCN(C)CC3)O[C@H](C)C2)c2cccnc12 [Example 342, N-{[(2S,6R)-6-methyl-4-(8-methylquinolin-5-yl)morpholin-2-yl]methyl}-2-(1-methylpiperidin-4-yl)acetamide] |
| > 150 | > 150 | C[C@@H]1CN(c2cnc(C#N)c3ncccc23)C[C@H](CNCC2(O)COC2)O1 [Example 378, 5-((2S,6R)-2-{[(3-Hydroxy-oxetan-3-ylmethyl)-amino]-methyl}-6-methyl-morpholin-4-yl)-[1,7]naphthyridine-8-carbonitrile] |
| < 75 | < 75 | Cc1c(F)cc(N2C[C@@H](C)C[C@@H](NC(=O)NCCN(C)C)C2)c2cccnc12 [Example 145, 3-[2-(dimethylamino)ethyl]-1-[(3R,5S)-1-(7-fluoro-8-methylquinolin-5-yl)-5-methylpiperidin-3-yl]urea] |
| < 75 | < 75 | C[C@@H]1CN(c2ccc(C(F)(F)F)c3ncccc23)C[C@H](CN2CCN(C)CC2)O1 [Example 330, 5-[(2R,6S)-2-Methyl-6-(4-methyl-piperazin-1-ylmethyl)-morpholin-4-yl]-8-trifluoromethyl-quinoline] |
| < 75 | < 75 | CN1CCC(F)(CNC(=O)[C@@H]2CN(c3cnc(C#N)c4ncccc34)C[C@H](C(F)(F)F)O2)CC1 (single isomer, unassigned) [Example 351] |
| < 75 | < 75 | C[C@H]1C[C@@H](NCCC(C)(C)O)CN(c2ccc(C(F)(F)F)c3ncccc23)C1 [Example 33, 2-Methyl-4-[(3R,5S)-5-methyl-1-(8-trifluoromethyl-quinolin-5-yl)-piperidin-3-ylamino]-butan-2-ol] |
| < 75 | < 75 | C[C@H]1C[C@@H](NC(=O)[C@@H]2CCNC2)CN(c2ccc(C(F)(F)F)c3ncccc23)C1 [Example 204, (3R)—N-[(3R,5S)-5-methyl-1-[8-(trifluoromethyl)quinolin-5-yl]piperidin-3-yl]pyrrolidine-3-carboxamide] |
| < 75 | < 75 | Cc1ccc(N2C[C@@H](C)C[C@@H](NC(=O)CC3(O)CCN(C)CC3)C2)c2cccnc12 [Example 85, 2-(4-hydroxy-1-methylpiperidin-4-yl)-N-[(3R,5S)-5-methyl-1-(8-methylquinolin-5-yl)piperidin-3-yl]acetamide hydrochloride] |
| < 75 | 75 to 150 | C[C@@H]1CN(c2cnc(C#N)c3ncccc23)C[C@H](C(=O)NCC2(F)CCNCC2)O1 [Example 300, (2R,6R)-4-(8-Cyano-[1,7]naphthyridin-5-yl)-6-methyl-morpholine-2-carboxylic acid (4-fluoro-piperidin-4-ylmethyl)-amide] |
